Molecular target: D(3) dopamine receptor (Rattus norvegicus) (UniProt P19020)
Experiment: Saturable binding was tested dopamine receptor D3 in rat striatal membrane homogenate
Type: cell membranes
Details: Striatum

Sequence of D(3) dopamine receptor (Rattus norvegicus) (P19020 whole entry): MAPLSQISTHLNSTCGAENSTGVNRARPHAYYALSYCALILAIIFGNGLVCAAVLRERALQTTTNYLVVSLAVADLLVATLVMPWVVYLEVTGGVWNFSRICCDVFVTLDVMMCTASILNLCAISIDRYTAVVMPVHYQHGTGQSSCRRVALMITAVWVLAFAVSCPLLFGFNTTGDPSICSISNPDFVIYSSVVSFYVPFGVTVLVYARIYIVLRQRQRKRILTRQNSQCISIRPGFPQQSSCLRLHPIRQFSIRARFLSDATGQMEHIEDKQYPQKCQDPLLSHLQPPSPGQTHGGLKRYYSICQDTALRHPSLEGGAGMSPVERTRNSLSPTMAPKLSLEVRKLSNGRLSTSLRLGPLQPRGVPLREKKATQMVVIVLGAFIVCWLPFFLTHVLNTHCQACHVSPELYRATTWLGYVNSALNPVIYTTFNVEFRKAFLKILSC

## CCCN(C/C=C/I)C1CCc2ccc(O)cc2C1 (stereo unspecified)
  Bmax (fM (mg of protein)-1): 240
